≈ marks a conversion by molar mass, not a printed value. Where two headings read alike, the source gives them in different places. One block for each molecule: values may come before it.
Experiments:
Experiment in all cases: 6-well plate assay, minimal inhibitory concentration
Format in all cases: cell-based
[1] = system: Antrodia vaillantii; conditions: for MIC: Fibroporia vaillantii, 168 h, read-out: Effectiveness at Inhibiting Wood-Rotting Fungi, BR3 (minimal inhibitory concentration)
Experimental: (§1) The minimal inhibitory concentration of fungicides against eight fungi was determined in 6-well microtiter plates. Minimal inhibitory concentration is defined as the lowest concentration at which no fungus growth is evident after seven days. A group of eight fungi were used in a screen to identify potential active ingredients to preserve wood. The eight fungi, their classification, and the growth media used to culture them are listed below:
(§2) Growth media were purchased from Difco (from Beckton Dickinson and Co., Sparks, Md.). The growth media were added to water to 2% w/v and autoclaved at 121° C. for 30 min. Autoclaved media were allowed to cool down to ˜50° C. Test chemicals were dissolved in DMSO (dimethyl sulfoxide) individually at 10 mg/mL to generate stock solutions. An appropriate amount of a stock solution was then added to the appropriate growth medium at 50° C. to make up the test media containing various concentrations of individual test chemicals. 10 mL of the medium was added to each well of a 6-well plate and allowed to solidify at room temperature. For each plate, the first well had no chemical, and the remaining five wells contained a particular test chemical at five different concentrations. Eight such plates were prepared for each chemical, using the eight media listed above for the eight test organisms.
(§3) After the media solidified and cooled, a plug (˜2 mm×2 mm) of agar growth medium with fresh grown mycelium from the appropriate fungal culture was used to inoculate each well. The plate was placed in an incubator, and the growth of the fungus monitored. After 4 to 7 days, the growth was scored manually.

[2] = system: Chaetomium globosum; conditions: for MIC: Chaetomium globosum, 168 h, read-out: Effectiveness at Inhibiting Wood-Rotting Fungi, SR1 (minimal inhibitory concentration)
Experimental: as §1, §2, §3

[3] = system: Gloeophyllum trabeum; conditions: for MIC: Gloeophyllum trabeum, 168 h, read-out: Effectiveness at Inhibiting Wood-Rotting Fungi, BR2 (minimal inhibitory concentration)
Experimental: as §1, §2, §3

[4] = system: Irpex lacteus; conditions: for MIC: Irpex lacteus, 168 h, read-out: Effectiveness at Inhibiting Wood-Rotting Fungi, WR2 (minimal inhibitory concentration)
Experimental: as §1, §2, §3

[5] = system: Phanerochaete chrysosporium; conditions: for MIC: Phanerodontia chrysosporium, 168 h, read-out: Effectiveness at Inhibiting Wood-Rotting Fungi, WR3 (minimal inhibitory concentration)
Experimental: as §1, §2, §3

[6] = system: Postia placenta; conditions: for MIC: Rhodonia placenta, 168 h, read-out: Effectiveness at Inhibiting Wood-Rotting Fungi, BR1 (minimal inhibitory concentration)
Experimental: as §1, §2, §3

[7] = system: Trametes versicolor; conditions: for MIC: Trametes versicolor, 168 h, read-out: Effectiveness at Inhibiting Wood-Rotting Fungi, WR1 (minimal inhibitory concentration)
Experimental: as §1, §2, §3

[8] = 6-well agar plate, lowest concentration with no growth after seven days

MIC [1, 8]: > 100 µg/mL
MIC [2, 8]: < 1 µg/mL
MIC [3, 8]: > 100 µg/mL
MIC [4, 8]: > 100 µg/mL
MIC [5, 8]: > 100 µg/mL
MIC [6, 8]: > 100 µg/mL
MIC [7, 8]: > 100 µg/mL
SMILES: c1ccc2[nH]c(-c3cscn3)nc2c1 [Thiabendazole]

SMILES: COC(=O)Nc1nc2ccccc2[nH]1 [Carbendazim]
MIC [1, 8]: 1 to 100 µg/mL (≈ 5.23 to 523 µM)
MIC [2, 8]: < 1 µg/mL
MIC [3, 8]: > 100 µg/mL
MIC [4, 8]: 1 to 100 µg/mL (≈ 5.23 to 523 µM)
MIC [5, 8]: 1 to 100 µg/mL (≈ 5.23 to 523 µM)
MIC [6, 8]: 1 to 100 µg/mL (≈ 5.23 to 523 µM)
MIC [7, 8]: > 100 µg/mL

SMILES: Oc1cccc2cccnc12 [8-Hydroxyquinoline]
MIC [1]: < 1 µg/mL
MIC [2]: > 100 µg/mL
MIC [3]: > 100 µg/mL
MIC [4]: 1 to 100 µg/mL (≈ 6.89 to 689 µM)
MIC [5]: > 100 µg/mL
MIC [6]: 1 to 100 µg/mL (≈ 6.89 to 689 µM)
MIC [7]: 1 to 100 µg/mL (≈ 6.89 to 689 µM)

SMILES: CON=C(C(=O)OC)c1ccccc1CON=C(C)c1cccc(C(F)(F)F)c1 [Trifloxystrobin]
MIC [1, 8]: < 1 µg/mL
MIC [2, 8]: > 100 µg/mL
MIC [3, 8]: < 1 µg/mL
MIC [4, 8]: > 100 µg/mL
MIC [5, 8]: > 100 µg/mL
MIC [6, 8]: 1 to 100 µg/mL (≈ 2.45 to 245 µM)
MIC [7, 8]: > 100 µg/mL

SMILES: CC1=C(C(=O)Nc2ccccc2)SCCO1 [Carboxin]
MIC [1]: < 1 µg/mL
MIC [2]: 1 to 100 µg/mL (≈ 4.25 to 425 µM)
MIC [3]: < 1 µg/mL
MIC [4]: < 1 µg/mL
MIC [5]: < 1 µg/mL
MIC [6]: 1 to 100 µg/mL (≈ 4.25 to 425 µM)
MIC [7]: < 1 µg/mL

SMILES: CCCCNC(=O)n1c(NC(=O)OC)nc2ccccc21 [Benomyl]
MIC [1, 8]: 1 to 100 µg/mL (≈ 3.44 to 344 µM)
MIC [2, 8]: < 1 µg/mL
MIC [3, 8]: > 100 µg/mL
MIC [4, 8]: > 100 µg/mL
MIC [5, 8]: 1 to 100 µg/mL (≈ 3.44 to 344 µM)
MIC [6, 8]: 1 to 100 µg/mL (≈ 3.44 to 344 µM)
MIC [7, 8]: > 100 µg/mL

SMILES: CC(C)(C)C(O)(CCc1ccc(Cl)cc1)Cn1cncn1 (stereo not shown) [Tebuconazole]
MIC [1, 8]: < 1 µg/mL
MIC [2, 8]: 1 to 100 µg/mL (≈ 3.25 to 325 µM)
MIC [3, 8]: < 1 µg/mL
MIC [4, 8]: < 1 µg/mL
MIC [5, 8]: < 1 µg/mL
MIC [6, 8]: < 1 µg/mL
MIC [7, 8]: < 1 µg/mL

SMILES: O=[N+]([O-])c1cc(C(F)(F)F)c(Cl)c([N+](=O)[O-])c1Nc1ncc(C(F)(F)F)cc1Cl [Fluazinam]
MIC [1, 8]: < 1 µg/mL
MIC [2, 8]: < 1 µg/mL
MIC [3, 8]: < 1 µg/mL
MIC [4, 8]: 1 to 100 µg/mL (≈ 2.15 to 215 µM)
MIC [5, 8]: 1 to 100 µg/mL (≈ 2.15 to 215 µM)
MIC [6, 8]: < 1 µg/mL
MIC [7, 8]: 1 to 100 µg/mL (≈ 2.15 to 215 µM)

SMILES: CO/C=C(\C(=O)OC)c1ccccc1Oc1cc(Oc2ccccc2C#N)ncn1 [Axoxystrobin]
Effectiveness at Inhibiting Wood-Rotting Fungi, BR3 (minimal inhibitory concentration) [1, 8]: 1 (“1” indicates effective inhibition at 1 ppm or less)
Effectiveness at Inhibiting Wood-Rotting Fungi, SR1 (minimal inhibitory concentration) [2, 8]: 3 (“3” indicates inhibition (if any) only at >100 ppm)
Effectiveness at Inhibiting Wood-Rotting Fungi, BR2 (minimal inhibitory concentration) [3, 8]: 1 (“1” indicates effective inhibition at 1 ppm or less)
Effectiveness at Inhibiting Wood-Rotting Fungi, WR2 (minimal inhibitory concentration) [4, 8]: 3 (“3” indicates inhibition (if any) only at >100 ppm)
Effectiveness at Inhibiting Wood-Rotting Fungi, WR3 (minimal inhibitory concentration) [5, 8]: 3 (“3” indicates inhibition (if any) only at >100 ppm)
Effectiveness at Inhibiting Wood-Rotting Fungi, BR1 (minimal inhibitory concentration) [6, 8]: 1 (“1” indicates effective inhibition at 1 ppm or less)
Effectiveness at Inhibiting Wood-Rotting Fungi, WR1 (minimal inhibitory concentration) [7, 8]: 3 (“3” indicates inhibition (if any) only at >100 ppm)

SMILES: CCCN(CCOc1c(Cl)cc(Cl)cc1Cl)C(=O)n1ccnc1 [Prochloraz]
MIC [1]: 1 to 100 µg/mL (≈ 2.65 to 265 µM)
MIC [2]: < 1 µg/mL
MIC [3]: > 100 µg/mL
MIC [4]: 1 to 100 µg/mL (≈ 2.65 to 265 µM)
MIC [5]: 1 to 100 µg/mL (≈ 2.65 to 265 µM)
MIC [6]: > 100 µg/mL
MIC [7]: 1 to 100 µg/mL (≈ 2.65 to 265 µM)

SMILES: CCCC1COC(Cn2cncn2)(c2ccc(Cl)cc2Cl)O1 (stereo not shown) [Propiconazole]
MIC [1, 8]: < 1 µg/mL
MIC [2, 8]: < 1 µg/mL
MIC [3, 8]: < 1 µg/mL
MIC [4, 8]: < 1 µg/mL
MIC [5, 8]: < 1 µg/mL
MIC [6, 8]: < 1 µg/mL
MIC [7, 8]: < 1 µg/mL

SMILES: CC(Cc1ccc(C(C)(C)C)cc1)CN1C[C@@H](C)O[C@@H](C)C1 (stereo partly shown) [Fenpropimorph]
MIC [1, 8]: 1 to 100 µg/mL (≈ 3.3 to 330 µM)
MIC [2, 8]: > 100 µg/mL
MIC [3, 8]: < 1 µg/mL
MIC [4, 8]: 1 to 100 µg/mL (≈ 3.3 to 330 µM)
MIC [5, 8]: 1 to 100 µg/mL (≈ 3.3 to 330 µM)
MIC [6, 8]: < 1 µg/mL
MIC [7, 8]: 1 to 100 µg/mL (≈ 3.3 to 330 µM)

SMILES: O=[N+]([O-])c1c(Cl)c(Cl)c(Cl)c(Cl)c1Cl [Pentachloronitrobenzene]
MIC [1]: > 100 µg/mL
MIC [2]: < 1 µg/mL
MIC [3]: 1 to 100 µg/mL (≈ 3.39 to 339 µM)
MIC [4]: > 100 µg/mL
MIC [5]: > 100 µg/mL
MIC [6]: 1 to 100 µg/mL (≈ 3.39 to 339 µM)
MIC [7]: > 100 µg/mL

SMILES: CC(C)(C)C(O)C(Oc1ccc(Cl)cc1)n1cncn1 (stereo not shown) [Baytan]
Effectiveness at Inhibiting Wood-Rotting Fungi, BR3 (minimal inhibitory concentration) [1, 8]: 1 (“1” indicates effective inhibition at 1 ppm or less)
Effectiveness at Inhibiting Wood-Rotting Fungi, SR1 (minimal inhibitory concentration) [2, 8]: 3 (“3” indicates inhibition (if any) only at >100 ppm)
Effectiveness at Inhibiting Wood-Rotting Fungi, BR2 (minimal inhibitory concentration) [3, 8]: 1 (“1” indicates effective inhibition at 1 ppm or less)
Effectiveness at Inhibiting Wood-Rotting Fungi, WR2 (minimal inhibitory concentration) [4, 8]: 1 (“1” indicates effective inhibition at 1 ppm or less)
Effectiveness at Inhibiting Wood-Rotting Fungi, WR3 (minimal inhibitory concentration) [5, 8]: 1 (“1” indicates effective inhibition at 1 ppm or less)
Effectiveness at Inhibiting Wood-Rotting Fungi, BR1 (minimal inhibitory concentration) [6, 8]: 2 (“2” indicates inhibition at about 1-100 ppm)
Effectiveness at Inhibiting Wood-Rotting Fungi, WR1 (minimal inhibitory concentration) [7, 8]: 1 (“1” indicates effective inhibition at 1 ppm or less)

MIC [1, 8]: 1 to 100 µg/mL (≈ 7.75 to 775 µM)
MIC [2, 8]: > 100 µg/mL
MIC [3, 8]: > 100 µg/mL
MIC [4, 8]: > 100 µg/mL
MIC [5, 8]: > 100 µg/mL
MIC [6, 8]: < 1 µg/mL
MIC [7, 8]: 1 to 100 µg/mL (≈ 7.75 to 775 µM)
SMILES: Nc1nc(=O)[nH]cc1F [5-Fluorocytosine]

SMILES: CN(C)C(=S)[S-].CN(C)C(=S)[S-].CN(C)C(=S)[S-].[Fe+3] [Ferbam]
Effectiveness at Inhibiting Wood-Rotting Fungi, BR3 (minimal inhibitory concentration) [1, 8]: 2 (“2” indicates inhibition at about 1-100 ppm)
Effectiveness at Inhibiting Wood-Rotting Fungi, SR1 (minimal inhibitory concentration) [2, 8]: 2 (“2” indicates inhibition at about 1-100 ppm)
Effectiveness at Inhibiting Wood-Rotting Fungi, BR2 (minimal inhibitory concentration) [3, 8]: 3 (“3” indicates inhibition (if any) only at >100 ppm)
Effectiveness at Inhibiting Wood-Rotting Fungi, WR2 (minimal inhibitory concentration) [4, 8]: 2 (“2” indicates inhibition at about 1-100 ppm)
Effectiveness at Inhibiting Wood-Rotting Fungi, WR3 (minimal inhibitory concentration) [5, 8]: 2 (“2” indicates inhibition at about 1-100 ppm)
Effectiveness at Inhibiting Wood-Rotting Fungi, BR1 (minimal inhibitory concentration) [6, 8]: 1 (“1” indicates effective inhibition at 1 ppm or less)
Effectiveness at Inhibiting Wood-Rotting Fungi, WR1 (minimal inhibitory concentration) [7, 8]: 2 (“2” indicates inhibition at about 1-100 ppm)

From US20060029743A1, “Wood preservatives and methods of wood preservation” (priority 2004, published 2006)
